# Measured values taken from ChEMBL document CHEMBL1201862, “PubChem BioAssay data set” (2004).
# The source made the active and inactive calls.
# Key:
# [1] = Counterscreen for IDE inhibitors: Luminescence-based cell-based high throughput dose response assay to identify compounds that are cytotoxic to HEK cells. [Related pubchem assays: 434962 (Primary screen (IDE inhibitors in singlicate)), 449730 (Counterscreen (Cytotoxicity in triplicate)), 435028 (Confirmation (IDE inhibitors in triplicate)) …; format: functional; details: HEK293
# Insulin-degrading enzyme = molecular target: T1, Insulin-degrading enzyme (Homo sapiens, UniProt P14735); experiment: Dose Response: Fluorescence polarization-based cell-based high throughput dose response assay for inhibitors of insulin-degrading enzyme (IDE). [Related pubchem assays: 434962 (Primary screen (IDE inhibitors in singlicate)), 449730 (Counterscreen (Cytotoxicity in triplicate)), 435028 (Confirmation (IDE inhibitors in triplicate)), 434984 (Summary …; format: functional
# T1 sequence (P14735 whole entry): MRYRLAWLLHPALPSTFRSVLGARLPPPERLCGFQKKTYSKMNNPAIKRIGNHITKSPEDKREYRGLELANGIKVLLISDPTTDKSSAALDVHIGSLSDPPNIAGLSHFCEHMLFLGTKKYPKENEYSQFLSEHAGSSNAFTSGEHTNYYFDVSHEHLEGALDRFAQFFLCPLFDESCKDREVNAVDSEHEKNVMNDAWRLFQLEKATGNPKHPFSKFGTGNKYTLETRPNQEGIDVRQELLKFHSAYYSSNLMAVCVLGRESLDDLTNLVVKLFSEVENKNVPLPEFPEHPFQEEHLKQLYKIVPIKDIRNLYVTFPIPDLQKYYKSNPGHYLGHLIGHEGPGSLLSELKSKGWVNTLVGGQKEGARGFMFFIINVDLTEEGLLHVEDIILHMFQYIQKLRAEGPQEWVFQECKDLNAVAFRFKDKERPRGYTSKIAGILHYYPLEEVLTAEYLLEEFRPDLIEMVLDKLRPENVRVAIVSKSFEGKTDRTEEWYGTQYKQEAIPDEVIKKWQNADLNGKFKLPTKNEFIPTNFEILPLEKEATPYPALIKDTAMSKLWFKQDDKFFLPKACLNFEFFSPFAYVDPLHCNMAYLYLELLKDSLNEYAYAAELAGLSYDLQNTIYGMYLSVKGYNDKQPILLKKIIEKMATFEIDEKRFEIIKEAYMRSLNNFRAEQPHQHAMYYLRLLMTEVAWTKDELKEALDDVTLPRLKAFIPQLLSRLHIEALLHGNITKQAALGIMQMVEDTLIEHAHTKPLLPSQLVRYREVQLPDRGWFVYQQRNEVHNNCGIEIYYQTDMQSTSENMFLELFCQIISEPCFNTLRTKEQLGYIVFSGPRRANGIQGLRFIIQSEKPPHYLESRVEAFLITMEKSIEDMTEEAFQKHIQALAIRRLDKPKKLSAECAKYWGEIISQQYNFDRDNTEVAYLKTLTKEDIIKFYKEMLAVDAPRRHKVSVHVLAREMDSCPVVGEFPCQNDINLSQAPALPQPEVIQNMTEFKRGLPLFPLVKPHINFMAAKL
# [2] = molecular target: G2/mitotic-specific cyclin-B1 (Homo sapiens, UniProt P14635); experiment: Counterscreen assay for inhibitors of Wee1 degradation: dose response cell-based assay to identify inhibitors of cyclin B degradation. [Related pubchem assays: 1410, 1321 ]; format: functional
# Chain of G2/mitotic-specific cyclin-B1 (P14635 whole entry): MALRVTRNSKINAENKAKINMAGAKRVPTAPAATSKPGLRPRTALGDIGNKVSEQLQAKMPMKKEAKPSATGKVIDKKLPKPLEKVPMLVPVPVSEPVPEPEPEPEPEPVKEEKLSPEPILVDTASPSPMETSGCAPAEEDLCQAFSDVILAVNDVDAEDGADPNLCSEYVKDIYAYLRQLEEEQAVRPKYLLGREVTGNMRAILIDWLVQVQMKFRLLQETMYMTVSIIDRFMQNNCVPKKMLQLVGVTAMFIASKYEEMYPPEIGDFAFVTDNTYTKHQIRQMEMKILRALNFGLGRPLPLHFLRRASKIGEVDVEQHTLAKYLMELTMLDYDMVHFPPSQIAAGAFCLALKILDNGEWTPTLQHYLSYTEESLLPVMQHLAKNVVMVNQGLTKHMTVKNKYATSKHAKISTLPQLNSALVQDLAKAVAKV
# Wee1-like protein kinase = Wee1-like protein kinase (Homo sapiens, UniProt P30291); experiment: Dose Response Cell-based Assay for Inhibitors of Wee1 Degradation. [Related pubchem assays: 1410, 1321 ]; format: functional
# Chain of Wee1-like protein kinase (P30291 whole entry): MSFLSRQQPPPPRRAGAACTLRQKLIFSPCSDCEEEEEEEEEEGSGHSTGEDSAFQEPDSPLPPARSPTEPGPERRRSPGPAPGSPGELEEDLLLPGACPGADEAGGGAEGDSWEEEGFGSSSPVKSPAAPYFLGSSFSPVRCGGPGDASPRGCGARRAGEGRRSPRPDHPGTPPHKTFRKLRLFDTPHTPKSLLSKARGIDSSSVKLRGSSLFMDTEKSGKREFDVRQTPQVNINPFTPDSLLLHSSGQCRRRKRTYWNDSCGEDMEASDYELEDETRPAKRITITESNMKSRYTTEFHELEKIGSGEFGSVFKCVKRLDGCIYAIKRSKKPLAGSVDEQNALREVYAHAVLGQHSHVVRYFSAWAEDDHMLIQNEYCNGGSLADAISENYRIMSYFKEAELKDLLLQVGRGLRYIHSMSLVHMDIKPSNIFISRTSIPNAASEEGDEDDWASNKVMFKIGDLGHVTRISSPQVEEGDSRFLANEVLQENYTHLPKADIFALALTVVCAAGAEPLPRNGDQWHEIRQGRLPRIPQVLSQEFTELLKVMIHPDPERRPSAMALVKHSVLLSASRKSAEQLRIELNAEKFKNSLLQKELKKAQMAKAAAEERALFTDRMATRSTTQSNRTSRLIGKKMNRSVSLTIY
# [3] = molecular target: Luciferin 4-monooxygenase (Photinus pyralis, UniProt P08659); experiment: Counter Screen for Luciferase-based Assay Positives. [Related pubchem assays: 620, 618, 411 ]
# Chain of Luciferin 4-monooxygenase (P08659 whole entry): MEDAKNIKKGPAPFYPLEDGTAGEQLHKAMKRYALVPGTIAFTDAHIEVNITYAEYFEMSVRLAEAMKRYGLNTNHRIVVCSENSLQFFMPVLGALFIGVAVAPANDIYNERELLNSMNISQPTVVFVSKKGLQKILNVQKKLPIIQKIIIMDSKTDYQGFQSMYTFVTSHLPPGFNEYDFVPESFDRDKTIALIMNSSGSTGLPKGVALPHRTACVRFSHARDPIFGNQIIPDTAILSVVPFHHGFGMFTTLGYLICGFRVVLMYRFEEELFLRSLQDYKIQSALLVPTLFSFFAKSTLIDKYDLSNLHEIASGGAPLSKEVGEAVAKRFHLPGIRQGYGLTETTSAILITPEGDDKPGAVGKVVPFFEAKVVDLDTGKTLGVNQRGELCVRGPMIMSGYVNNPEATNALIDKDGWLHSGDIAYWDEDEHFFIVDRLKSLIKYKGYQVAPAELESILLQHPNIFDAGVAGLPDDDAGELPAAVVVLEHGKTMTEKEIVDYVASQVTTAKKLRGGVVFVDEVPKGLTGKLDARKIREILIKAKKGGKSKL
# HT-1080 = experiment: cytotoxicity in HT1080 fibrosarcoma cells, cell-based, fluorescence readout (AID 620); format: functional; details: Homo sapiens
# [4] = Luminescence Cell-Based Dose Retest to Confirm Inhibitors of Cancer Stem Cells. [Related pubchem assays (depositor defined):AID2717, AID2721]; format: functional; details: Homo sapiens
# [5] = molecular target: T2, Replicative DNA helicase DnaB (Mycobacterium tuberculosis, UniProt P9WMR3); experiment: DnaB intein splicing inhibitors, dose response, biochemical, cell-free fluorescence (AID 449749); format: functional
# T2 sequence (P9WMR3 whole entry): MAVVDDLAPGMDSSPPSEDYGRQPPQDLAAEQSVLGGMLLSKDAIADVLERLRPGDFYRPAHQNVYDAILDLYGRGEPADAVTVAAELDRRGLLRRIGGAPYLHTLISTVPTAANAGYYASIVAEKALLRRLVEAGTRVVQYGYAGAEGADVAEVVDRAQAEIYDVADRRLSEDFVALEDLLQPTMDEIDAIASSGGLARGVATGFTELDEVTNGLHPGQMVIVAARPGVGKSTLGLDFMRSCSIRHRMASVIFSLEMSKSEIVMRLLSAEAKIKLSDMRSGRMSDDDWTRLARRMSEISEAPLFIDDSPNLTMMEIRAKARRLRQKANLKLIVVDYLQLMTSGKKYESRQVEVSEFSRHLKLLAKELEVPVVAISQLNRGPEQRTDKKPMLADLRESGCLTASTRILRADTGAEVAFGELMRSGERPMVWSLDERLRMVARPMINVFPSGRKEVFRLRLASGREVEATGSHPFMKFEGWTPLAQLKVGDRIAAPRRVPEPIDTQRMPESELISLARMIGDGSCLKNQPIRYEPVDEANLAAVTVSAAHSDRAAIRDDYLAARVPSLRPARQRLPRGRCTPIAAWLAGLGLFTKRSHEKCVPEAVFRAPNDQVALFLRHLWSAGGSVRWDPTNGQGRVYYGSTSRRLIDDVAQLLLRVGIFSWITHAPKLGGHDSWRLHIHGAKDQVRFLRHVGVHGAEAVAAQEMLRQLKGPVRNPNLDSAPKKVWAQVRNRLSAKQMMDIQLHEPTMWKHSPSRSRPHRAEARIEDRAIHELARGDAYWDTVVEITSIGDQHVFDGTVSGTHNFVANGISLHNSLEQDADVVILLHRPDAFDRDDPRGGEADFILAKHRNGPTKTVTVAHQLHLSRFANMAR
# Protein RecA = molecular target: T3, Protein RecA (Mycobacterium tuberculosis, UniProt P9WHJ3); experiment: Fluorescence Cell-Free Homogeneous Dose Retest to Identify Inhibitors of RecA-Intein Splicing Activity. [Related pubchem assays (depositor defined):AID2097, AID2223, AID489010, AID492950]; format: functional
# T3 sequence (P9WHJ3 whole entry): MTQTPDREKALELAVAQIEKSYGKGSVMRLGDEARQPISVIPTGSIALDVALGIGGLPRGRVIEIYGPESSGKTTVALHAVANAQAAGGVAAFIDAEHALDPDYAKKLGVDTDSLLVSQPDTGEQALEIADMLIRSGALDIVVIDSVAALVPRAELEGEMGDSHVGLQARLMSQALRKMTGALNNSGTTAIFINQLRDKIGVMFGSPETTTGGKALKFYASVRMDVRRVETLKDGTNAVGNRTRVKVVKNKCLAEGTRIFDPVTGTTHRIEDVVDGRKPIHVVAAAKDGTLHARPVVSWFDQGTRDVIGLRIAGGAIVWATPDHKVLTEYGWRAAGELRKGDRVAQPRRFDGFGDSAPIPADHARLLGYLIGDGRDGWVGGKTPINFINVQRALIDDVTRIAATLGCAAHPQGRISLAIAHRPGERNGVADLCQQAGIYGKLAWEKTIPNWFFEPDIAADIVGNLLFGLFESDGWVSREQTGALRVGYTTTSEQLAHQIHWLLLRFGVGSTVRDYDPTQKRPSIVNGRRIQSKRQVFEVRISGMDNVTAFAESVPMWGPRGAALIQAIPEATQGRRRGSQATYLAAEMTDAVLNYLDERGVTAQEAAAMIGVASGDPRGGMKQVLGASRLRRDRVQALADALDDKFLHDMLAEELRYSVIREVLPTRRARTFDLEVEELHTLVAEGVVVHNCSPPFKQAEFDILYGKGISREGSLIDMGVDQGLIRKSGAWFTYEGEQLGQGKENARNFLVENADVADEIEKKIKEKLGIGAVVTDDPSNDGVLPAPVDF
# [6] = inhibitors of PGC1a acetylation in cells, dose response, cell-based, cherry-picked samples (AID 720514); format: functional;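 further: potency may reflect raised or lowered acetylation signal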
# [7] = molecular target: Mothers against decapentaplegic homolog 3 (Homo sapiens, UniProt P84022); experiment: Smad3 binding inhibitors, lysate ELISA, dose response, cell lysate, secondary confirmation, chemiluminescent ELISA, HEK293 lysate (AID 1058); format: functional
# Chain of Mothers against decapentaplegic homolog 3 (P84022 whole entry): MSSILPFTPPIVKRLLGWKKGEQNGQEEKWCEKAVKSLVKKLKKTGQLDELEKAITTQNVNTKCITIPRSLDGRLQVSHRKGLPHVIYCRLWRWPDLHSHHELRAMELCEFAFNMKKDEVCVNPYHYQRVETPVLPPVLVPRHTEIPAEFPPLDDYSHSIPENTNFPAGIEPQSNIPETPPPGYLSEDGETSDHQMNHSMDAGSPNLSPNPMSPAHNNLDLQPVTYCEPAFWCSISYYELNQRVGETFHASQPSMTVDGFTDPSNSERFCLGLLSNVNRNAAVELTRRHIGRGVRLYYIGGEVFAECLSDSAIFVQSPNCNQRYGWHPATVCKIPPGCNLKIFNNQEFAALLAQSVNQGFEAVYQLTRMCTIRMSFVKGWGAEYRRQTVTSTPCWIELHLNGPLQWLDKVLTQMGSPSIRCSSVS
smiles,measurement,setting,value
O=C(Nc1cccc(C(F)(F)F)c1)c1csc(-c2ccncc2)n1,IC50,[1],21.2 µM (not active)
same,IC50,Insulin-degrading enzyme,5.34 µM (active)
O=C(/C=C/c1ccccc1)Nc1ccc(Cl)cn1,EC50,[2],> 49.7 µM (not active)
same,EC50,Wee1-like protein kinase,> 49.7 µM (not active)
CCCCOc1ccc(C(=O)C(CN2CCOCC2)c2ccccc2)cc1 (stereo unspecified),EC50,[3],3.7 µM (active)
same,EC50,HT-1080,30 µM (active)
same,AC50,[4],5.12 µM (active)
same,AC50,[5],12.6 µM (active)
same,EC50,Protein RecA,26.7 µM (inconclusive)
same,AC50,[6],4.4 µM (active)
Oc1cc2c(cc1C(c1ccc3c(c1)OCO3)N1CCN(C(c3ccc4c(c3)OCO4)c3cc4c(cc3O)OCO4)CC1)OCO2 (stereo unspecified),IC50,[7],14.1 µM (not active)
